The term ED50 denotes the midpoint of the dose-response relation.

This passage reports ED50 results from patent US5463077A, “Perhydroisoindole derivatives and preparation” (Rhone-Poulenc Rorer S.A., priority 1992, dated 1995).

Holding throughout (type): in vivo
Assay [1] deals with hypotension induced by substance P. Kind of assay: Antagonism of hypotension induced by substance P (Maggi et al.). The following applies: Cavia porcellus, iv; guinea-pig; hypotension induced by i.v. injection of 250 ng/kg of substance P; read-out: ED50, dose which reduces by 50% the hypotension. As for the experimental part:
Injection of substance P into the animal causes hypotension. The products studied by the technique of C. A. Maggi et al., J. Auton. Pharmac., 7, 11-32 (1987) show an antagonistic effect with respect to this hypotension in the guinea-pig. The ED50, the dose which reduces by 50% the hypotension induced by an i.v. injection of 250 ng/kg of substance P, is determined.

Assay [2] has as its system increase in capillary permeability caused by septide (agonist of substance P). Nature of the assay: Inhibition of the increase in capillary permeability caused by septide (Saria et al., adapted for the guinea-pig). The following applies: Cavia porcellus. From the text: Study of certain isoindole derivatives of the general formula (IV) by the technique of A. Saria et al., Arch.

In assay [3] the test system is bronchospasm induced by [Pro^9 ] substance P. Nature of the assay: Inhibition of bronchospasm induced by [Pro9] substance P (Konzett and Rossler). The note with it: Cavia porcellus, iv; guinea-pig; bronchospasm induced by 3 μg/kg i.v. of [Pro9] substance P; read-out: ED50, dose which reduces by 50% the bronchospasm. From the text:
Injection of substance P causes a bronchospasm in the animal. The bronchoconstriction induced in vivo in the guinea-pig by injection of substance P or of a selective agonist of substance P: [Pro^9 ] substance P is studied by the technique of H. Konzett and R. Rosseler, Archiv. Exp. Path. Pharmak., 195, 71-74 (1940). This bronchoconstriction is inhibited by injection of a product of the general formula (IV), which is evidence of an antiasthmatic activity. The ED50, the dose which reduces by 50 % the bronospasm induced by 3 μg/kg i.v. of [Pro^9 ] substance P, is determined. In this technique, the ED50 of the product of Use Example 1 is 0.7 mg/kg i.v.

For `COc1ccccc1[C@H](C)C(=O)N1C[C@@H]2[C@H](C1)C(c1ccccc1)(c1ccccc1)CC[C@@]2(O)c1ccccc1OC` [Use Example 1, (3aS,4S,7aS)-7,7-diphenyl-4-(2-methoxyphenyl)-2-[2-(2-methoxyphenyl)-(S)-propionyl]-perhydroisoindol-4-ol], the ED50 is 0.15 mg/kg in assay [1], 0.04 mg/kg in assay [2] (iv), 3.5 mg/kg in assay [2] (po) and 0.7 mg/kg in assay [3].
